Reference: PubChem BioAssay (NCI)
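The compound was tested at five concentrations on cells cultured in 96-well plates, with a 48-hour exposure period. GI50 is the concentration that inhibits growth by half. TGI: total growth inhibition.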

The molecules below were run on DU-145 prostate (assay: NCI-60 cell line screen, 48 h).
For COc1ccc2ccc3oc(=O)c(C)cc3c2c1, the TGI was > 100 µM. Molecule O=c1c(F)cn2c(=O)n1CCCCCCCn1c(=O)c(F)cn(c1=O)CCCCCCC2 has a TGI of 12.4 µM. In the case of Cc1nnc2n(c1=O)CCCN2C, the TGI is reported as > 100 µM. O=C(ON=C1c2ccccc2C(Br)C(Br)c2ccccc21)c1ccccc1 (stereo unspecified) was tested, and the TGI was 31.8 µM. Nc1ncnc2c1nnn2C1C=CC(CP(=O)(O)O)C1 (stereo unspecified) was tested, and the TGI was > 100 µM. CN(C)CCn1c(=O)c2ccc(NCCCN(C)CCCNc3ccc4c(=O)n(CCN(C)C)c(=O)n5c6ccc(O)cc6c(=O)c3c45)c3c(=O)c4cc(O)ccc4n(c1=O)c23 was tested, and the TGI was 0.655 µM. In the case of CC(=O)c1ccc(Oc2c3ccccc3nc3ccccc23)cc1, the TGI is reported as 15.2 µM. Cn1c2ccccc2n2c3ncccc3c(=O)c(C#N)c12 showed a TGI of 24.7 µM. With S=C(Cc1ccc2c(c1)Sc1ccccc1O2)N1CCOCC1 the TGI was > 100 µM. In the case of C[n+]1cc2cc(O)c(O)cc2c2ccc3cc(O)c(O)cc3c21, the TGI is reported as > 100 µM. In the case of COc1ccc(N=Nc2c(-c3c(OC)cc4occc4c3OC)[nH]c(=O)c(C#N)c2C)cc1, the TGI is reported as > 100 µM. With O=C(/C=C/c1ccc(Cl)cc1)Oc1ccc(C=C2CCC/C(=C\c3ccc(OC(=O)/C=C/c4ccc(Cl)cc4)cc3)C2=O)cc1 the TGI was > 100 µM. With c1ccc2c(c1)SCCCS2 the TGI was > 100 µM. In the case of COc1ccc2c(c1)c1c(n2CCN2CCCCC2)-c2cccc(OC)c2CC1, the TGI is reported as > 100 µM. COc1ccc2nc(NC(=O)/C(C#N)=C/c3ccccc3)sc2c1 was tested, and the TGI was > 100 µM. Cc1nc2ccc(Cl)cc2c(-n2ccnc2)c1CCn1ccnc1 was tested, and the TGI was > 100 µM. Cc1c(C)n(-c2ccccc2)c2nc(S(C)=O)nc(S(C)=O)c12 (stereo unspecified) gave a TGI of 27.5 µM. In the case of CC1(C)CC(=O)C2=C(C1)C(c1ccccc1Cl)C1C(=O)CC(C)(C)CC1(O)O2 (stereo unspecified), the TGI is reported as > 100 µM. With Cn1nc(-c2ccc(S(=O)(=O)/N=C(\NN)Nc3ccc(Cl)cc3)s2)cc1C(F)(F)F the TGI was 30.8 µM. For CCc1c(O)cc(=O)oc1-c1ccc(OC)c(OC)c1, the TGI was > 100 µM. For Cc1ccc2c(c1C)C(=O)C1(Cc3cc4c(cc3C1=O)CCC4)C2 (stereo unspecified), the TGI was > 100 µM. With CCCCI(O)OS(=O)(=O)c1ccc(C)cc1 the TGI was > 100 µM. In the case of C[C@@H]1CC[C@@]2(C)C(C(=O)O)=CCCC2[C@@]1(C)CC(=O)c1ccoc1 (stereo partly specified), the TGI is reported as > 25 µM. O=C(CCc1cc(O)cc(O)c1)NCCc1cc(OCc2ccccc2)cc(OCc2ccccc2)c1 was tested, and the TGI was 33.5 µM. In the case of Clc1cccc(-c2sc(-c3cccs3)cc2Cc2cccs2)c1, the TGI is reported as > 10 µM. Work on c1ccc(-c2c(-c3ccccc3)[n+](Cc3ccc4ccccc4c3)c(-c3ccc(-c4nc5ccccc5s4)cc3)n2Cc2ccc3ccccc3c2)cc1 yielded a GI50 of 262 nM and a TGI of 1.03 µM. O=c1c2c3c(sc2[nH]c(=S)n1-c1ccccc1)CCCc1ccc([N+](=O)[O-])cc1-3 was tested, and the TGI was > 100 µM. In the case of CC1CC(N2CCOCC2)=Nc2ccccc2N1C (stereo unspecified), the TGI is reported as > 100 µM. CC(C)C(Br)CCC1=CCC(Br)(Br)C1 (stereo unspecified) gave a TGI of 32.5 µM. With CN(C)C(=O)C(F)(F)C(c1ccc(F)cc1)C1C(=O)N(C)C(=O)N(C)C1=O (stereo unspecified) the TGI was > 100 µM. With O=c1[nH]c(NCc2ccncc2)nc2nc[nH]c12 the TGI was > 100 µM. For Cc1ccc(-c2cc(-c3ccco3)c(C#N)c(=S)[nH]2)cc1, the TGI was > 100 µM. COc1ccc(C)cc1N1C(=O)C2ON(Cc3ccc(CC(N)=O)cc3)C(c3c4ccccc4c(Cl)c4ccccc34)C2C1=O (stereo unspecified) gave a TGI of 86.5 µM. In the case of COc1ccc(C2Oc3ccc(Cl)cc3C=C2[N+](=O)[O-])cc1 (stereo unspecified), the TGI is reported as > 100 µM. Molecule NS(=O)(=O)c1nnc(NC(=O)N(c2ccccc2)c2ccccc2)s1 has a TGI of 41 µM. COCOc1ccc(C(=O)Oc2cccc3c2OC(C)(C)O3)c(OCOC)c1 was tested, and the TGI was > 100 µM. With COC(=O)c1ccccc1C1CN=NC12Cc1c(ccc(C)c1C)C2=O (stereo unspecified) the TGI was > 100 µM. For COc1cccc(C2c3cc4c(cc3OC(O)C2C)OCO4)c1OC (stereo unspecified), the TGI was 26.2 µM. In the case of CCOC(=O)/C=C/c1nc(C#N)c(N)o1, the TGI is reported as > 100 µM. In the case of O=C1C=CC2(O[C@H](c3ccccc3)[C@@H](c3ccccc3)O2)[C@H](Sc2ccccc2O)C1, the TGI is reported as 2.59 µM. In the case of CN(/N=C1\C(=O)Nc2ccccc21)c1ccccc1, the TGI is reported as > 100 µM.

The molecules below were run on EKVX NSCLC (assay: NCI-60 cell line screen, 48 h).
For COc1ccc2ccc3oc(=O)c(C)cc3c2c1, the TGI was > 100 µM. For O=c1c(F)cn2c(=O)n1CCCCCCCn1c(=O)c(F)cn(c1=O)CCCCCCC2, the TGI was > 100 µM. For Cc1nnc2n(c1=O)CCCN2C, the TGI was > 100 µM. Work on O=C(ON=C1c2ccccc2C(Br)C(Br)c2ccccc21)c1ccccc1 (stereo unspecified) yielded a TGI of 46.6 µM. For Nc1ncnc2c1nnn2C1C=CC(CP(=O)(O)O)C1 (stereo unspecified), the TGI was > 100 µM. CN(C)CCn1c(=O)c2ccc(NCCCN(C)CCCNc3ccc4c(=O)n(CCN(C)C)c(=O)n5c6ccc(O)cc6c(=O)c3c45)c3c(=O)c4cc(O)ccc4n(c1=O)c23 showed a TGI of 0.929 µM. Work on CC(=O)c1ccc(Oc2c3ccccc3nc3ccccc23)cc1 yielded a TGI of 35.1 µM. With Cn1c2ccccc2n2c3ncccc3c(=O)c(C#N)c12 the TGI was > 100 µM. CCCCCCCCCCCCCCCCCCOc1ccccc1CC(=O)NCC[N+]1(C)CCOCC1 was tested, and the GI50 was 8620 nM and the TGI was 56.2 µM. With S=C(Cc1ccc2c(c1)Sc1ccccc1O2)N1CCOCC1 the TGI was > 100 µM. In the case of C[n+]1cc2cc(O)c(O)cc2c2ccc3cc(O)c(O)cc3c21, the TGI is reported as > 100 µM. For COc1ccc(N=Nc2c(-c3c(OC)cc4occc4c3OC)[nH]c(=O)c(C#N)c2C)cc1, the TGI was > 100 µM. With O=C(/C=C/c1ccc(Cl)cc1)Oc1ccc(C=C2CCC/C(=C\c3ccc(OC(=O)/C=C/c4ccc(Cl)cc4)cc3)C2=O)cc1 the TGI was > 100 µM. With c1ccc2c(c1)SCCCS2 the TGI was > 100 µM. With COc1ccc2c(c1)c1c(n2CCN2CCCCC2)-c2cccc(OC)c2CC1 the TGI was 42 µM. For COc1ccc2nc(NC(=O)/C(C#N)=C/c3ccccc3)sc2c1, the TGI was > 100 µM. Molecule Cc1c(C)n(-c2ccccc2)c2nc(S(C)=O)nc(S(C)=O)c12 (stereo unspecified) has a TGI of 22.8 µM. In the case of CC1(C)CC(=O)C2=C(C1)C(c1ccccc1Cl)C1C(=O)CC(C)(C)CC1(O)O2 (stereo unspecified), the TGI is reported as > 100 µM. Cn1nc(-c2ccc(S(=O)(=O)/N=C(\NN)Nc3ccc(Cl)cc3)s2)cc1C(F)(F)F showed a TGI of 28.2 µM. For CCc1c(O)cc(=O)oc1-c1ccc(OC)c(OC)c1, the TGI was > 100 µM. Cc1ccc2c(c1C)C(=O)C1(Cc3cc4c(cc3C1=O)CCC4)C2 (stereo unspecified) was tested, and the TGI was > 100 µM. For CCCCI(O)OS(=O)(=O)c1ccc(C)cc1, the TGI was > 100 µM. C[C@@H]1CC[C@@]2(C)C(C(=O)O)=CCCC2[C@@]1(C)CC(=O)c1ccoc1 (stereo partly specified) was tested, and the TGI was > 25 µM. O=C(CCc1cc(O)cc(O)c1)NCCc1cc(OCc2ccccc2)cc(OCc2ccccc2)c1 gave a TGI of 22.6 µM. For Clc1cccc(-c2sc(-c3cccs3)cc2Cc2cccs2)c1, the TGI was > 10 µM. c1ccc(-c2c(-c3ccccc3)[n+](Cc3ccc4ccccc4c3)c(-c3ccc(-c4nc5ccccc5s4)cc3)n2Cc2ccc3ccccc3c2)cc1 was tested, and the GI50 was 187 nM and the TGI was 1.19 µM. O=c1c2c3c(sc2[nH]c(=S)n1-c1ccccc1)CCCc1ccc([N+](=O)[O-])cc1-3 was tested, and the TGI was > 100 µM. CC1CC(N2CCOCC2)=Nc2ccccc2N1C (stereo unspecified) was tested, and the TGI was > 100 µM. For CC(C)C(Br)CCC1=CCC(Br)(Br)C1 (stereo unspecified), the TGI was 32.5 µM. In the case of CN(C)C(=O)C(F)(F)C(c1ccc(F)cc1)C1C(=O)N(C)C(=O)N(C)C1=O (stereo unspecified), the TGI is reported as > 100 µM. With Cc1c2cccc-2c2cc(O)c3ccccc3c2n1-c1ccc(N(C)C)cc1 the TGI was 11.7 µM. With Cc1c(N2CCOCC2)nc2ccc(Cl)cc2c1-c1ccccc1 the TGI was > 100 µM. O=c1[nH]c(NCc2ccncc2)nc2nc[nH]c12 was tested, and the TGI was > 100 µM. With Cc1ccc(-c2cc(-c3ccco3)c(C#N)c(=S)[nH]2)cc1 the TGI was > 100 µM. With Cc1cc([N+](=O)[O-])c(C)c2c1[nH]c1ccc(Cl)cc12 the TGI was > 100 µM. Work on COc1ccc(C)cc1N1C(=O)C2ON(Cc3ccc(CC(N)=O)cc3)C(c3c4ccccc4c(Cl)c4ccccc34)C2C1=O (stereo unspecified) yielded a TGI of 98 µM. With COc1ccc(C2Oc3ccc(Cl)cc3C=C2[N+](=O)[O-])cc1 (stereo unspecified) the TGI was > 100 µM. Molecule NS(=O)(=O)c1nnc(NC(=O)N(c2ccccc2)c2ccccc2)s1 has a TGI of 78.2 µM. In the case of COCOc1ccc(C(=O)Oc2cccc3c2OC(C)(C)O3)c(OCOC)c1, the TGI is reported as > 100 µM. In the case of COC(=O)c1ccccc1C1CN=NC12Cc1c(ccc(C)c1C)C2=O (stereo unspecified), the TGI is reported as > 100 µM. For COc1cc2nc(-c3ccc(Cl)cc3)cc(OCCCN3CCOCC3)c2cc1OC, the GI50 was 1730 nM and the TGI was > 100 µM. COC(=O)/C=C(\C)CC/C=C(\C)CCC1OC1(C)C (stereo unspecified) gave a TGI of 24.3 µM. With COc1ccc(CNc2cnc3ccc(N)cc3n2)cc1 the TGI was > 100 µM. For CCOC(=O)C1C(c2ccc(Cl)cc2Cl)NC(c2ccc(C)cc2)C(C(=O)OC)S1(=O)=O (stereo unspecified), the TGI was > 100 µM. In the case of COc1cccc(C2c3cc4c(cc3OC(O)C2C)OCO4)c1OC (stereo unspecified), the TGI is reported as 78.7 µM. With CCOC(=O)/C=C/c1nc(C#N)c(N)o1 the TGI was > 100 µM. Molecule O=C1C=CC2(O[C@H](c3ccccc3)[C@@H](c3ccccc3)O2)[C@H](Sc2ccccc2O)C1 has a TGI of 3.31 µM. With CN(/N=C1\C(=O)Nc2ccccc21)c1ccccc1 the TGI was > 100 µM.

The molecules below were run on HCC-2998 colon (assay: NCI-60 cell line screen, 48 h).
COc1ccc2ccc3oc(=O)c(C)cc3c2c1 was tested, and the TGI was > 100 µM. O=c1c(F)cn2c(=O)n1CCCCCCCn1c(=O)c(F)cn(c1=O)CCCCCCC2 was tested, and the TGI was > 100 µM. In the case of Cc1nnc2n(c1=O)CCCN2C, the TGI is reported as > 100 µM. O=C(ON=C1c2ccccc2C(Br)C(Br)c2ccccc21)c1ccccc1 (stereo unspecified) gave a TGI of 38.1 µM. Nc1ncnc2c1nnn2C1C=CC(CP(=O)(O)O)C1 (stereo unspecified) was tested, and the TGI was > 100 µM. With CN(C)CCn1c(=O)c2ccc(NCCCN(C)CCCNc3ccc4c(=O)n(CCN(C)C)c(=O)n5c6ccc(O)cc6c(=O)c3c45)c3c(=O)c4cc(O)ccc4n(c1=O)c23 the TGI was 0.173 µM. CC(=O)c1ccc(Oc2c3ccccc3nc3ccccc23)cc1 showed a TGI of 24 µM. In the case of Cn1c2ccccc2n2c3ncccc3c(=O)c(C#N)c12, the TGI is reported as > 100 µM.
